Assay results as given in patent US4151300A, “Acetohydroxamic acids” (Laboratoire L. Lafon, priority 1976, dated 1979).
Entries after “also recorded” stand apart in the source; their conditions may differ. Read-outs that look alike come from different tables or passages of the source.

Legend:
[1] = tested on: mice; assay: interaction with oxotremorine (temperature, trembling, peripheral cholinergic symptoms); format: in vivo; settings: mice, i.p.
[2] = tested on: mice; assay: inter-group aggressiveness (number of fights); format: in vivo; settings: mice, i.p., large/high dose
Description: (§1) The following text summarises a part of the results of the tests which were carried out with the products according to the invention, these products (unless otherwise stated) being administered intraperitoneally, in suspension in a gum solution (gum arabic), in a volume of 20 ml/kg in the case of mice and of 5 ml/kg in the case of rats.
After three weeks' residence in each of the halves of a cage divided by an opaque partition, the mice receive CRL 40,373 thirty minutes before being brought together by withdrawing the partition.
After 18 days' residence on either side of a partition separating their cage in the middle, groups of 3 mice receive CRL 40,385 and are brought together half an hour later by withdrawing the partition, and the number of fights which take place in the course of 15 minutes is noted.

[3] = tested on: mice; assay: interaction with reserpine (hypothermia, ptosis); format: in vivo; settings: i.p.
[4] = tested on: rats; assay: interaction with amphetamine (stereotypies in rats); format: in vivo
Description: as §1
30 minutes after the administration of CRL 40,373, amphetamine is injected intraperitoneally at a dose of 2 mg/kg.
Thirty minutes after the administration of CRL 40,385 the rats are given an intraperitoneal injection of 2 mg/kg of amphetamine (6 animals per dose).

[5] = tested on: mice; assay: spontaneous motility (actimeter); format: in vivo; settings: i.p.
Description: as §1
Thirty minutes after having been given CRL 40,373, the mice (6 per dose, 12 comparison animals) are placed in an actimeter, where their motility is recorded for half an hour.
Thirty minutes after having been given CRL 40,385, the mice are placed in actimeters where their motility is recorded for half an hour.

[6] = tested on: mice; assay: motility reduced by hypoxia treatment (motor recovery); format: in vivo; settings: mice, i.p.
[7] = tested on: mice; assay: toxicity (isolated mice, intraperitoneal); format: in vivo
Description: as §1

[8] = tested on: man; assay: clinical use in man; format: in vivo; settings: tablet 100 mg, 1 to 3 tablets per day
[9] = tested on: mice; assay: traction (motor incoordination); format: in vivo, mice (EVIC CEBA strain); settings: i.p.
[10] = tested on: mice; assay: electrical shock (convulsing effects); format: in vivo, mice (EVIC CEBA strain); settings: mice, i.p.
Description: as §1
(§2) The test is carried out on batches of 10 sensitive mice (EVIC CEBA strain), 30 minutes after the administration of CRL 40,373.
(§3) Batches of 10 mice are subjected to the test thirty minutes after having received CRL 40,385.

[11] = tested on: mice; assay: motility reduced by habituation to a cage (residual motility); format: in vivo; settings: i.p.
Description: as §1
Mice which have remained for 18 hours in the actimeters are given CRL 40,373. They are immediately replaced in their cages and, after a period of half an hour, their motility is recorded for 30 minutes (6 animals per dose, 12 comparison animals).
After remaining for 18 hours in the actimeters, the mice receive CRL 40,385. Immediately afterwards they are replaced in their cage and half an hour afterwards the recording of the motility starts and is continued for 30 minutes.

[12] = tested on: mice; assay: four-plate test; format: in vivo, mice (EVIC CEBA strain); settings: mice, i.p.
Description: as §1, §2, §3

[13] = tested on: central nervous system; assay: psychopharmacological study / behaviour; format: in vivo, mice; settings: for psychopharmacological profile / conclusion: mouse, in vivo
[14] = tested on: rats; assay: interaction with apomorphine (stereotype behaviour in rats); format: in vivo
Description: as §1
Batches of six rats are each given a subcutaneous injection of apomorphine (0.5 mg/kg) 30 minutes after the administration of CRL 40,373.
Batches of 6 rats are given a subcutaneous injection of 0.5 mg/kg of apomorphine 30 minutes after the administration of CRL 40,385.

[15] = tested on: rats; assay: prolonged conditioning to take avoiding action (shuttle box); format: in vivo
From the text: Rats placed in a shuttle box are conditioned to avoid an electric shock by changing sides. The shock is preceded by a sound and light stimulus lasting 3 seconds, which ceases when sides are changed or after 8 seconds. The sequence is repeated every 20 seconds. Animals conditioned for several tens of minutes show a percentage of avoidance which is close to 100%. They continue to be subjected to the stimulus […] and gradually they reach a state in which they are no longer able to change sides during the period of 3 seconds during which no shock is delivered.
As a first approximation, such an effect can be likened to a resumption of conditioned activity in a tired animal.
Rats placed in a "shuttle box" are conditioned to avoid an electric shock lasting 5 seconds, by changing sides. The shock is preceded, for 3 seconds, by a sound and light stimulus which ceases when the rat changes side, or at the end of 8 seconds. The sequence repeats every 20 seconds. […] They continue to be subjected to the stimulus every 20 seconds and gradually they no longer succeed in avoiding the shock.
CRL 40,438 is then administered and any resumption of the avoidance movements is followed until the effect ceases.

CCCCC(CCCC)(CCCC)C(=O)NO [CRL 40,373, Tributylacetohydroxamic acid]
oxotremorine-induced trembling [1]: no significant influence on the trembling caused by oxotremorine
temperature (oxotremorine-induced hypothermia) ([1]; 128 and 512 mg/kg, oxotremorine 0.5 mg/kg i.p.): exerts a hypothermia-inducing effect and aggravates the lowering of the temperature produced by oxotremorine
peripheral cholinergic symptoms of oxotremorine ([1]; high doses (128 and 512 mg/kg)): increases the hypersalivation and hyperlacrymation produced by oxotremorine
aggressiveness [2]: reduces the number of fights
reserpine-induced hypothermia [3]: not modified
reserpine-induced ptosis [3]: not modified
amphetamine-induced stereotypies ([4]; rats, i.p.): inhibits the amphetamine-induced stereotypies, this inhibition being proportional to the doses
spontaneous motility ([5]; mice, 128 and 512 mg/kg): causes a reduction in the (spontaneous) motor activity of the mice
motor recovery after hypoxia/anoxia by pressure reduction [6]: does not produce an improvement in the motor recovery of mice
mortality ([7]; isolated mice, i.p., 64, 128, 256, 512 and 1,024 mg/kg): No mortality whatsoever
clinical result [8]: used clinically with success as a sedative
motor incoordination / incapacity [9]: does not bring about any major motor incoordination
convulsing effects of the electric shock [10]: does not modify the convulsing effects of the electric shock
motility reduced by habituation to the cage [11]: does not cause a resumption of the exploring activity of mice accustomed to their environment
number of incorrect moves (four-plate test) [12]: does not cause an increase in the number of incorrect moves
psychopharmacological profile / conclusion [13]: sedative agent
apomorphine-induced stereotypies ([14]; rats, i.p.): not influenced

CC(C(=O)NO)C(=O)N(c1ccccc1)c1ccccc1 (stereo not shown) [CRL 40,438, 2-(N,N-Diphenylcarbamoyl)-propionohydroxamic acid]
oxotremorine-induced trembling [1]: moderately opposes hypothermia and ptosis induced by reserpine, and the trembling movements caused by oxotremorine
aggressiveness [2]: reduces the aggressive behaviour of mice
reserpine-induced hypothermia [3]: moderately opposes hypothermia
reserpine-induced ptosis [3]: moderately opposes hypothermia and ptosis induced by reserpine
amphetamine-induced stereotypies ([4]; high dose): boosting of the stereotypies induced by apomorphine and by amphetamine
spontaneous motility [5]: moderate increase in the spontaneous motor activity
LD-O (maximum non-lethal dose) ([7]; mice, i.p.): greater than 1,024 mg/kg
motility reduced by habituation to the cage [11]: very marked stimulant effect where the motility has been reduced by habituation to the cage
resumption of avoiding actions (prolonged avoidance test) [15]: an effect of the "anti-fatigue" type
resumption of avoiding actions (prolonged avoidance test) ([15]; i.p., 64, 128 and 256 mg/kg): causes a resumption of the avoidance behaviour
stereotype movements (product alone) ([13]; high dose): presence, at a high dose, of stereotype movements
reactivity ([13]; mice): hyper-reactivity in mice
psychopharmacological profile / conclusion [13]: effects of the excitation-inducing type; also recorded: activity of the anti-depressant type or of the psychostimulant type
apomorphine-induced stereotypies ([14]; high dose): boosting of the stereotypies induced by apomorphine
